In the NIST ThermoML archive (doi:10.1021/je050021e):
± gives the expanded uncertainty stated by the source.

Experiments:
[1] = Liquid
[2] = xn = mol fraction of the nth substance listed; settings: Liquid, x2 = 0

COCCOCCOCCOC [2,5,8,11-tetraoxadodecane]
[1]
Settings | mass density, 303.15 K [kg/m3] | mass density, 313.15 K [kg/m3] | mass density, 323.15 K [kg/m3] | mass density, 333.15 K [kg/m3] | mass density, 343.15 K [kg/m3] | viscosity, 303.15 K [mPa·s] | viscosity, 313.15 K [mPa·s] | viscosity, 323.15 K [mPa·s] | viscosity, 333.15 K [mPa·s] | viscosity, 343.15 K [mPa·s]
101 kPa | – | – | – | – | – | 1.77 ± 0.04 | 1.48 ± 0.04 | 1.26 ± 0.03 | 1.08 ± 0.03 | 0.945 ± 0.025
101.3 kPa | 975.86 ± 1 | 966.36 ± 0.99 | 956.85 ± 0.98 | 947.32 ± 0.97 | 937.72 ± 0.96 | – | – | – | – | –

O [water] + CC(=O)N1CCOCC1
[2], 101 kPa
Settings | mass density [kg/m3] | viscosity [mPa·s]
298.15 K | – | 0.8903 ± 0.029
303.15 K | – | 0.7976 ± 0.026
313.15 K | – | 0.6531 ± 0.022
323.15 K | 988.04 ± 0.53 | 0.547 ± 0.019
333.15 K | 983.12 ± 0.53 | 0.466 ± 0.017
343.15 K | 977.77 ± 0.52 | 0.4049 ± 0.015

CC(=O)N1CCOCC1 [4-acetylmorpholine]
[1], 101 kPa
Settings | mass density [kg/m3] | viscosity [mPa·s]
298.15 K | 1110.33 ± 0.61 | 8.48 ± 0.23
303.15 K | 1106 ± 0.6 | 7.1 ± 0.2
313.15 K | 1097.35 ± 0.6 | 5.18 ± 0.15
323.15 K | 1088.74 ± 0.59 | 3.96 ± 0.12
333.15 K | 1080.14 ± 0.59 | 3.12 ± 0.1
343.15 K | 1071.55 ± 0.58 | 2.55 ± 0.08

O [water] + COCCOCCOCCOC
[2]
Settings | mass density, 323.15 K [kg/m3] | mass density, 333.15 K [kg/m3] | mass density, 343.15 K [kg/m3] | viscosity, 303.15 K [mPa·s] | viscosity, 313.15 K [mPa·s] | viscosity, 323.15 K [mPa·s] | viscosity, 333.15 K [mPa·s] | viscosity, 343.15 K [mPa·s]
101 kPa | – | – | – | 0.89 ± 0.022 | 0.6531 ± 0.017 | 0.547 ± 0.015 | 0.466 ± 0.013 | 0.4049 ± 0.011
101.3 kPa | 988.04 ± 0.09 | 983.12 ± 0.09 | 977.77 ± 0.09 | – | – | – | – | –
